Source: patent US12714706B2, “Methods of treating small cell lung cancer with lurbinectedin formulations” (PHARMA MAR, S.A., priority 2019, dated 2026)
Where “and” joins values, the source holds several entries; their conditions need not be identical. Equal entries are not always repeated. Where two headings read alike, the source gives them in different places.

Columns and labels:
[1] = DVS (dynamic vapor sorption); type: physicochemical
Description: DVS experiments were carried out with a Projekt Messtechnik SPS 11-100n multi-sample water vapor sorption analyzer. The sample was allowed to equilibrate at 50% r.h. before starting a pre-defined humidity program. The program was: • 2 h at 50% r.h. • 50 to 0% r.h. (5%/h) • 5 h at 0% r.h. • 0 to 95% r.h (5%/h) • 5 h at 95% r.h. • 95 to 50% (5%/h) • 2 h at 50% r.h.

DSC = type: physicochemical
Description: DSC experiments were carried out with a Perkin Elmer DSC 7 using closed Au crucibles with a heating range between −50 to 250° C. and a heating rate of 10 or 20° C./min.

TG-FTIR = type: physicochemical
Description: TG-FTIR experiments were conducted with a Thermo-Microbalance TG-209 (Netzsch) equipped with a FT-IR Spectrometer Vector 22 (Bruker) using Al crucible (open or with microhole) under N2 atmosphere with a heating range between 25 and 250° C. and a heating rate of 10° C./min.

[2] = Direct dissolution of lurbinectedin at 0.5 mg/mL in 0.03 M sodium lactate buffer pH 4; type: physicochemical
Description: In embodiments, the lurbinectedin to be dissolved is at least partially crystalline. The lurbinectedin to be dissolved may be in the solid state form(s) described herein.

[3] = Analytical results and impurity profile of batches of Form A and Form B of lurbinectedin; type: physicochemical; design: Impurity RRT approx. 1.10-1.11 / Impurity RRT approx. 1.12 / Impurity RRT approx. 1.27-1.34 / Impurity RRT approx. 1.29-1.30 / Impurity RRT approx. 1.30-1.32 / Impurity RRT approx. 1.28-1.37 / Impurity RRT approx. 2.37 / Impurity RRT approx. 2.41-2.52 / Impurity RRT approx. 2.85 / Impurity RRT approx. 0.66-0.69 / Impurity RRT approx. 0.72-0.76: unit not given here; conditions: for Impurity RRT aprox 0.66-0.69 / Impurity RRT aprox 0.72-0.76 / Impurity RRT aprox 0.90-0.92: batches of Form B
Description: Several batches of Form A of lurbinectedin were manufactured by this method.
Several batches of Form B of lurbinectedin were manufactured by this method.

[4] = Electrostatic charge measurements with a Faraday cage; type: physicochemical; conditions: dry nitrogen, 95% confidence
Description: This technique consists in placing the sample to be measured (q) in the interior of the inner sphere (a) and measuring the difference of potential induced between sphere (a) and another conductor of reference, sphere (b). The external sphere (c) is grounded in order to shield the system.
Measurements were carried out under controlled atmosphere of dry nitrogen in order to avoid the effect of ambient humidity on the electrostatic charge of the samples. Samples were introduced in glass capsules using non-conductor instrumental to avoid loses of electrostatic charge. The capsules loaded with the samples were introduced in the Faraday cage through a grounded conductor tube to avoid parasitic static charges in the glass capsule. The entry and removal of the capsules was done with a computer-controlled servo engine, in order to ensure a constant rate of introduction and removal of the capsules in each measurement to minimize the creation of static charges due to friction of the insulator elements.
Results: Several measurements with different amounts of material were carried out for each batch of each form of lurbinectedin. Before loading the capsules, they were washed and their remaining static charge was measured in order to correct the levels. Each sample was introduced and removed five times and, after each introduction, several consecutive measurements were taken in order to average any possible drift effect.
The data was fitted by lineal regression (dashed lines in FIGS. 9a and 9b) to obtain the charge density (Q/m) as the slope of the line.

[5] = Lurbinectedin plus irinotecan trial: pharmacokinetics of lurbinectedin, irinotecan and SN-38; conditions: combination: lurbinectedin 1.0-2.4 mg/m2 + irinotecan 75 mg/m2; n=39; mean (SD)
[6] = irinotecan 125 mg/m2 (Camptosar label); n=64; mean (SD); cited from earlier work
SCLC = test: Post-hoc exploratory analysis of response in SCLC patients who had previously received immunotherapy; type: in vivo, human; conditions: individual SCLC patients, therapy before lurbinectedin
Description: Post-hoc exploratory analysis was done on the response in patients who had previously received immunotherapy (n=8).

[7] = batches of Form A of lurbinectedin, listed as P04
[8] = impurity profile, batches of Form A, listed as P04
[9] = batches of Form B of lurbinectedin, listed as 1924128-LT
[10] = impurity profile, listed as 1924128-LT
[11] = batches of Form B of lurbinectedin
[12] = batches of Form B of lurbinectedin, listed as 1924129-LT
[13] = impurity profile, listed as 1924129-LT
[14] = batches of Form A of lurbinectedin, listed as R05
[15] = impurity profile, batches of Form A, listed as R05

COc1ccc2[nH]c3c(c2c1)CCN[C@]31CS[C@@H]2c3c(OC(C)=O)c(C)c4c(c3[C@H](COC1=O)N1[C@@H]2[C@H]2c3c(cc(C)c(OC)c3O)C[C@@H]([C@@H]1O)N2C)OCO4 [Form B of lurbinectedin]
Deliquescence by DVS [1]: not deliquescent | Hygroscopicity by DVS [1]: hygroscopic | DVS mass change Δm ([1]; 50 to 96% r.h.): 4% | Temperature at which degradation begins by DSC (DSC): above 130 °C | Degradation temperature by TG-FTIR (TG-FTIR): above 150 °C | Release of water by TG-FTIR (TG-FTIR): 2.6% | Fraction of the target concentration reached ([2]; 0.5 mg/mL in 0.03 M sodium lactate buffer pH 4, in 2 hours): 60-70%

COc1ccc2[nH]c3c(c2c1)CCN[C@]31CS[C@@H]2c3c(OC(C)=O)c(C)c4c(c3[C@H](COC1=O)N1[C@@H]2[C@H]2c3c(cc(C)c(OC)c3O)C[C@@H]([C@@H]1O)N2C)OCO4 [Batch P04]
Residual Solvents Ethyl acetate ([3]; batches of Form A of lurbinectedin): <LOQ | Impurities Total [3, 7]: 0.2 % Area | Residual Solvents Acetonitrile [3, 7]: <LOQ | Residual Solvents Dichloro-methane [3, 7]: <LOQ | Residual Solvents Hexane [3, 7]: <LOQ | Residual Solvents Methanol [3, 7]: 1.6 % w/w | Residual Solvents Pentane [3, 7]: 0.5 % w/w | Residual Solvents Total [3, 7]: 2.1 % w/w | Water Content [3, 7]: 1.6 % w/w | Impurity RRT approx. 0.72-0.76 [3, 8]: 0.09 | Impurity RRT approx. 1.29-1.30 [3, 8]: 0.10 | Average charge density (Q/m) ([4]; listed as P04): 43.1 ± 3.86 nC/g | Dispersion of charge density (Q/m) ([4]; listed as P04): 7.6 ± 2.8 nC/g

COc1ccc2[nH]c3c(c2c1)CCN[C@]31CS[C@@H]2c3c(OC(C)=O)c(C)c4c(c3[C@H](COC1=O)N1[C@@H]2[C@H]2c3c(cc(C)c(OC)c3O)C[C@@H]([C@@H]1O)N2C)OCO4 [Form A of lurbinectedin]
Time to complete direct dissolution ([2]; 0.5 mg/mL in 0.03 M sodium lactate buffer pH 4): approximately 30 minutes

COc1ccc2[nH]c3c(c2c1)CCN[C@]31CS[C@@H]2c3c(OC(C)=O)c(C)c4c(c3[C@H](COC1=O)N1[C@@H]2[C@H]2c3c(cc(C)c(OC)c3O)C[C@@H]([C@@H]1O)N2C)OCO4 [Batch 1924128-LT]
Total Impurities [3, 9]: 0.4 % Area | Water Content [3, 9]: 3.0 % w/w | Impurity RRT aprox 0.66-0.69 [3, 10]: 0.06 % area | Impurity RRT aprox 0.72-0.76 [3, 10]: 0.25 % area | Impurity RRT aprox 0.90-0.92 [3, 10]: 0.07 % area | Average charge density (Q/m) ([4]; listed as 1924128-LT): 4.3 ± 0.4 nC/g | Dispersion of charge density (Q/m) ([4]; listed as 1924128-LT): 1.01 ± 0.3 nC/g

CCc1c2c(nc3ccc(O)cc13)-c1cc3c(c(=O)n1C2)COC(=O)[C@]3(O)CC [SN-38]
CL [5]: 810.3 (574) L/h | Cmax [5]: 18.1 (7.7) ug/L | HL [5]: 18.6 (9.1) h | Vz [5]: 18232.3 (8208.4) L | Cmax [6]: 26.3 (11.9) ug/L | HL [6]: 21.0 (20) h

COc1ccc2[nH]c3c(c2c1)CCN[C@]31CS[C@@H]2c3c(OC(C)=O)c(C)c4c(c3[C@H](COC1=O)N1[C@@H]2[C@H]2c3c(cc(C)c(OC)c3O)C[C@@H]([C@@H]1O)N2C)OCO4 [Batch 1924129-LT]
Residual Solvents Acetonitrile [3, 11]: <LOQ | Residual Solvents CH2Cl2 [3, 11]: <LOQ | Residual Solvents Methanol [3, 11]: <LOQ | Residual Solvents Pentane [3, 11]: <LOQ | Residual Solvents Total [3, 11]: 0.0 % w/w | Total Impurities [3, 12]: 0.4 % Area | Water Content [3, 12]: 4.1 % w/w | Impurity RRT aprox 0.66-0.69 [3, 13]: 0.07 % area | Impurity RRT aprox 0.72-0.76 [3, 13]: 0.24 % area | Impurity RRT aprox 0.90-0.92 [3, 13]: 0.08 % area | Average charge density (Q/m) ([4]; listed as 1924129-LT): 4.96 ± 2.0 nC/g | Dispersion of charge density (Q/m) ([4]; listed as 1924129-LT): 3.4 ± 1.4 nC/g

Nivolumab
Last prior therapy: TTP (SCLC; resistant disease): 2.2 months and 4.1 months and 2.5 months | Last prior therapy: TTP (SCLC; sensitive disease): 1.8 months and 1.4 months

COc1ccc2[nH]c3c(c2c1)CCN[C@]31CS[C@@H]2c3c(OC(C)=O)c(C)c4c(c3[C@H](COC1=O)N1[C@@H]2[C@H]2c3c(cc(C)c(OC)c3O)C[C@@H]([C@@H]1O)N2C)OCO4 [Batch R05]
Impurities Total [3, 14]: 0.4 % Area | Residual Solvents Acetonitrile [3, 14]: <LOQ | Residual Solvents Dichloro-methane [3, 14]: <LOQ | Residual Solvents Hexane [3, 14]: <LOQ | Residual Solvents Methanol [3, 14]: 2.2 % w/w | Residual Solvents Pentane [3, 14]: 0.3 % w/w | Residual Solvents Total [3, 14]: 2.5 % w/w | Water Content [3, 14]: 1.1 % w/w | Impurity RRT approx. 2.37 ([3]; impurity profile, batches of Form A): 0.13 | Impurity RRT approx. 0.72-0.76 [3, 15]: 0.10 | Impurity RRT approx. 1.10-1.11 [3, 15]: 0.09 | Impurity RRT approx. 1.29-1.30 [3, 15]: 0.05 | Average charge density (Q/m) ([4]; listed as R05): 64.02 ± 7.98 nC/g | Dispersion of charge density (Q/m) ([4]; listed as R05): 15.23 ± 5.64 nC/g

CCc1c2c(nc3ccc(OC(=O)N4CCC(N5CCCCC5)CC4)cc13)-c1cc3c(c(=O)n1C2)COC(=O)[C@]3(O)CC [irinotecan, reference compound]
HL [6]: 11.7 (9) h
